Our source for the IC50 values is BindingDB's records for doi:10.1016/s0960-894x(99)00012-8 (Nippon Steel, 1999).

Assay [1] in a line: Inhibitory activity against bovine pancreatic alpha-chymotrypsin (alpha-CT).
Assay [2] can be described thus: Inhibitory activity against porcine pancreatic elastase (PPE).
Assay [3] in a line: Inhibitory activity against porcine pancreatic trypsin (TRP).
Experiment in assay [4]: as above
This is another data set of the same source.

One may read the IC50 as the concentration that inhibits the measured activity by half. Higher therefore signals weaker potency.

Turning to `CCCCCC(NC(=O)c1ccccc1)C(C)(C)C(=O)OC(=O)C(C)(C)C(CCCCC)NC(=O)c1ccccc1` (centres undefined) [1,1-dimethyl-2-phenylcarboxamidooctanoic anhydride], the values for the IC50 in assay [1], in assay [2] and in assay [3] were 31 nM, 61 nM and 3900 nM, respectively.

On to `CC(C)(C(=O)OC(=O)C(C)(C)C(NC(=O)c1ccc(C#N)cc1)c1ccccc1)C(NC(=O)c1ccc(C#N)cc1)c1ccccc1` (centres undefined) [2-(4-cyanophenylcarboxamido)-1,1-dimethyl-2-phenylpropanoic anhydride], for which the half-maximal inhibitory concentration (IC50) in assay [1] was found to be 15 nM; in assay [4] it was 1800 nM; in assay [2], 210 nM.

For `CC(C)(CNC(=O)c1ccccc1)C(=O)OC(=O)C(C)(C)CNC(=O)c1ccccc1` [1,1-dimethyl-2-phenylcarboxamidopropanoic anhydride], the half-inhibitory concentration (IC50) stood at 140 nM in assay [1], 2600 nM in assay [2] and 990 nM in assay [3].

With `CCC(NC(=O)c1ccccc1)C(C)(C)C(=O)OC(=O)C(C)(C)C(CC)NC(=O)c1ccccc1` (centres undefined) [1,1-dimethyl-2-phenylcarboxamidopentanoic anhydride], the 50% inhibitory concentration (IC50) came to 72 nM in assay [1], 210 nM in assay [2] and 2200 nM in assay [3].

On to `CCCCC(NC(=O)c1ccccc1)C(C)(C)C(=O)OC(=O)C(C)(C)C(CCCC)NC(=O)c1ccccc1` (centres undefined) [1,1-dimethyl-2-phenylcarboxamidoheptanoic anhydride], for which the concentration for half-maximal inhibition (IC50) in assay [1] is 5.3 nM; in assay [2] it was 34 nM; in assay [3] it was 2900 nM.

For `CC(C)(C(=O)OC(=O)C(C)(C)C(NC(=O)c1ccc(C#N)cc1)C1CC=CCC1)C(NC(=O)c1ccc(C#N)cc1)C1CC=CCC1` (centres undefined) [2-(4-cyanophenylcarboxamido)-2-cyclohex-3-enyl-1,1-dimethylpropanoic anhydride], the results for the IC50 in assay [1], in assay [2] and in assay [3] were 220 nM, 180 nM and 1600 nM, respectively.

For the compound `CCCCCCC(NC(=O)c1ccccc1)C(C)(C)C(=O)OC(=O)C(C)(C)C(CCCCCC)NC(=O)c1ccccc1` (centres undefined) [1,1-dimethyl-2-phenylcarboxamidononanoic anhydride], the IC50 in assay [1] worked out at 44 nM; in assay [2], 180 nM; in assay [3], 3300 nM.

Consider `CC(C)(C(=O)OC(=O)C(C)(C)C(CCc1ccccc1)NC(=O)c1ccc(C#N)cc1)C(CCc1ccccc1)NC(=O)c1ccc(C#N)cc1` (centres undefined) [[2,2-dimethyl-3-(N-(4-cyanobenzoyl)aminoi)-5-phenylpentanoic anhydride]], for which the IC50 came to 2.1 nM in assay [1], 300 nM in assay [4] and 36 nM in assay [2].

For the compound `CCCC(=O)NC(CCc1ccccc1)C(C)(C)C(=O)OC(=O)C(C)(C)C(CCc1ccccc1)NC(=O)CCC` (centres undefined) [1,1-dimethyl-4-phenyl-2-propylcarboxamidopentanoic anhydride], the 50% inhibitory concentration (IC50) in assay [3] amounted to 1200 nM.

`CCCCCC(NC(=O)CCC)C(C)(C)C(=O)OC(=O)C(C)(C)C(CCCCC)NC(=O)CCC` (centres undefined) [1,1-dimethyl-2-propylcarboxamidooctanoic anhydride]: the IC50 in assay [1] is 810 nM; in assay [2], 55 nM; in assay [3], 18000 nM.

With `CC(C)(C(=O)OC(=O)C(C)(C)C(CCc1ccccc1)NC(=O)c1ccccc1)C(CCc1ccccc1)NC(=O)c1ccccc1` (centres undefined) [1,1-dimethyl-4-phenyl-2-phenylcarboxamidopentanoic anhydride], the IC50 in assay [1] worked out at 18 nM; in assay [2] it was 64 nM; in assay [3] it was 2700 nM.

For `Cc1ccccc1C(NC(=O)c1ccc(C#N)cc1)C(C)(C)C(=O)OC(=O)C(C)(C)C(NC(=O)c1ccc(C#N)cc1)c1ccccc1C` (centres undefined) [2-(4-cyanophenylcarboxamido)-1,1-dimethyl-2-(2-methylphenyl)propanoic anhydride], the 50% inhibitory concentration (IC50) in assay [1] is 190 nM; in assay [4], 18000 nM; in assay [2] it was 2100 nM.

With `CCCC(NC(=O)c1ccccc1)C(C)(C)C(=O)OC(=O)C(C)(C)C(CCC)NC(=O)c1ccccc1` (centres undefined) [1,1-dimethyl-2-phenylcarboxamidohexanoic anhydride], the results for the IC50 in assay [1] and in assay [3] were 49 nM and 8800 nM, respectively.

For `CC(C)(C(=O)OC(=O)C(C)(C)C(NC(=O)c1ccc(C#N)cc1)c1ccccc1Cl)C(NC(=O)c1ccc(C#N)cc1)c1ccccc1Cl` (centres undefined) [2-(2-chlorophenyl)-2-(4-cyanophenylcarboxamido)-1,1-dimethylpropanoic anhydride], the half-inhibitory concentration (IC50) in assay [1] was 250 nM; in assay [4], 8200 nM; in assay [2] it was 1100 nM.
